What was measured:
duodenum = test: Intestinal morphology (villus length, crypt depth) in the duodenum; assay type: in vivo, Ross 308 broiler chickens; settings: 21 days
Description: The study was undertaken following the guidelines of the ethics committee of the Faculty of Veterinary Medicine and Bioscience Engineering, Ghent University, in accordance with the EU Directive 2010/63/EU. […] They were allotted into 4 groups, with three replicate pens per group each housing 8 chickens. The animals were not vaccinated. Water and commercial starter feed (day 1-12, FARM 1 Mash, Country's Best, […], Belgium) or grower (day 13-21, FARM 2 mash, Country's Best, […], Belgium) were provided ad libitum. […] At day 21, 4 birds per pen were weighted then euthanized by sodium pentobarbital injection for sampling. […] Additionally, ileal and caecal content samples were collected and stored at -20°C for berberine and berberine-derived metabolite quantification. […] 24 h formalin-fixed duodenal intestinal tissue segments were embedded in paraffin wax and sectioned at 5 μm, followed by haematoxylin and eosin staining. Villus length and crypt depth were assessed using a PC-based image analysis system (Leica Application Suite V4, LAS V4.; Leica, Diegem Belgium).

jejunal microbiota = test: 16S rRNA gene sequencing, microbiota composition in the jejunum; assay type: in vivo, Ross 308 broiler chickens
[1] = 0.1 g berberine/kg feed vs normal diet, 21 days, LinDA-normalized abundance
[2] = 0.1 g berberine/kg feed, 21 days
[3] = 0.5 g berberine/kg feed vs normal diet, 21 days, LinDA-normalized abundance
[4] = 0.5 g berberine/kg feed, 21 days
[5] = 1 g berberine/kg feed vs normal diet, 21 days, LinDA-normalized abundance

With `COc1ccc2cc3[n+](cc2c1OC)CCc1cc2c(cc1-3)OCO2` [Berberine, Berberine chloride] the Crypt depth (duodenum; 0.1 g berberine/kg feed) was 114 ± 21 µm, the Villus length (duodenum; 0.1 g berberine/kg feed) was 1,678 ± 101 µm and the “Villus to crypt ratio” value (duodenum; 0.1 g berberine/kg feed) was 15.30 ± 2.50. The Crypt depth (duodenum; 0.5 g berberine/kg feed) was 104 ± 15 µm, the Villus length (duodenum; 0.5 g berberine/kg feed) was 1,815 ± 148 µm and the “Villus to crypt ratio” value (duodenum; 0.5 g berberine/kg feed) was 17.98 ± 2.53. The Crypt depth (duodenum; 1 g berberine/kg feed) was 103 ± 17 µm, the Villus length (duodenum; 1 g berberine/kg feed) was 1,820 ± 150 µm and the “Villus to crypt ratio” value (duodenum; 1 g berberine/kg feed) was 18.31 ± 3.21. The “L2 FC Butyricicoccus, 0.1 vs 0” value (jejunal microbiota; [1]) was -2.02, the “L2 FC Curtobacterium, 0.1 vs 0” value (jejunal microbiota; [1]) was -2.73 and the “L2 FC Gordonibacter, 0.1 vs 0” value (jejunal microbiota; [1]) was -2.71. For the same compound, the “Mean relative abundance (%) Butyricicoccus” value (jejunal microbiota; [2]) was 0.22%, the “Mean relative abundance (%) Curtobacterium” value (jejunal microbiota; [2]) was 0.01% and the “Mean relative abundance (%) Gordonibacter” value (jejunal microbiota; [2]) was 0.01%. For the same compound, the “Mean relative abundance of Bacillaceae” value (jejunal microbiota; [2]) was 0.03%, the “Mean relative abundance of Burkholderiaceae” value (jejunal microbiota; [2]) was 6.47% and the “Mean relative abundance of Peptostreptococcaceae” value (jejunal microbiota; [2]) was 6.37%. For the same compound, the “Mean relative abundance of Pseudomonadaceae” value (jejunal microbiota; [2]) was 1.71%, the “Mean relative abundance of Ruminococcaceae” value (jejunal microbiota; [2]) was 3.73% and the “Mean relative abundance of uncultured bacterium family (Tenericutes, Mollicutes RF39)” value (jejunal microbiota; [2]) was 0.01%. The “L2FC of LinDA-normalized abundance of Bacillaceae” value (jejunal microbiota; 0.1 vs 0 g berberine/kg feed) was 3.45, the “L2FC of LinDA-normalized abundance of Burkholderiaceae” value (jejunal microbiota; 0.1 vs 0 g berberine/kg feed) was 3.82 and the “L2FC of LinDA-normalized abundance of Peptostreptococcaceae” value (jejunal microbiota; 0.1 vs 0 g berberine/kg feed) was 3.90. For the same compound, the “L2FC of LinDA-normalized abundance of Pseudomonadaceae” value (jejunal microbiota; 0.1 vs 0 g berberine/kg feed) was 3.67, the “L2FC of LinDA-normalized abundance of Ruminococcaceae” value (jejunal microbiota; 0.1 vs 0 g berberine/kg feed) was 2.19 and the “L2FC of LinDA-normalized abundance of uncultured bacterium family (Tenericutes, Mollicutes RF39)” value (jejunal microbiota; 0.1 vs 0 g berberine/kg feed) was 2.35. For the same compound, the “L2 FC Butyricicoccus, 0.5 vs 0” value (jejunal microbiota; [3]) was -0.78, the “L2 FC Curtobacterium, 0.5 vs 0” value (jejunal microbiota; [3]) was -1.13 and the “L2 FC Gordonibacter, 0.5 vs 0” value (jejunal microbiota; [3]) was -2.33. For the same compound, the “Mean relative abundance (%) Butyricicoccus” value (jejunal microbiota; [4]) was 0.34%, the “Mean relative abundance (%) Curtobacterium” value (jejunal microbiota; [4]) was 0.03% and the “Mean relative abundance (%) Gordonibacter” value (jejunal microbiota; [4]) was 0.00%. The “Mean relative abundance of Bacillaceae” value (jejunal microbiota; [4]) was 0.04%, the “Mean relative abundance of Burkholderiaceae” value (jejunal microbiota; [4]) was 5.60% and the “Mean relative abundance of Peptostreptococcaceae” value (jejunal microbiota; [4]) was 0.52%. The “Mean relative abundance of Pseudomonadaceae” value (jejunal microbiota; [4]) was 0.35%, the “Mean relative abundance of Ruminococcaceae” value (jejunal microbiota; [4]) was 4.52% and the “Mean relative abundance of uncultured bacterium family (Tenericutes, Mollicutes RF39)” value (jejunal microbiota; [4]) was 0.02%. For the same compound, the “L2FC of LinDA-normalized abundance of Bacillaceae” value (jejunal microbiota; 0.5 vs 0 g berberine/kg feed) was 1.43, the “L2FC of LinDA-normalized abundance of Burkholderiaceae” value (jejunal microbiota; 0.5 vs 0 g berberine/kg feed) was 0.67 and the “L2FC of LinDA-normalized abundance of Peptostreptococcaceae” value (jejunal microbiota; 0.5 vs 0 g berberine/kg feed) was -1.12. The “L2FC of LinDA-normalized abundance of Pseudomonadaceae” value (jejunal microbiota; 0.5 vs 0 g berberine/kg feed) was 0.14, the “L2FC of LinDA-normalized abundance of Ruminococcaceae” value (jejunal microbiota; 0.5 vs 0 g berberine/kg feed) was -0.14 and the “L2FC of LinDA-normalized abundance of uncultured bacterium family (Tenericutes, Mollicutes RF39)” value (jejunal microbiota; 0.5 vs 0 g berberine/kg feed) was 0.60. For the same compound, the “L2 FC Butyricicoccus, 1 vs 0” value (jejunal microbiota; [5]) was -0.38, the “L2 FC Curtobacterium, 1 vs 0” value (jejunal microbiota; [5]) was -2.09 and the “L2 FC Gordonibacter, 1 vs 0” value (jejunal microbiota; [5]) was -1.79. The “Mean relative abundance (%) Butyricicoccus” value (jejunal microbiota; 1 g berberine/kg feed, 21 days) was 0.84%, the “Mean relative abundance (%) Curtobacterium” value (jejunal microbiota; 1 g berberine/kg feed, 21 days) was 0.06% and the “Mean relative abundance (%) Gordonibacter” value (jejunal microbiota; 1 g berberine/kg feed, 21 days) was 0.02%. The “Mean relative abundance of Bacillaceae” value (jejunal microbiota; 1 g berberine/kg feed, 21 days) was 0.04%, the “Mean relative abundance of Burkholderiaceae” value (jejunal microbiota; 1 g berberine/kg feed, 21 days) was 3.55% and the “Mean relative abundance of Peptostreptococcaceae” value (jejunal microbiota; 1 g berberine/kg feed, 21 days) was 0.26%. For the same compound, the “Mean relative abundance of Pseudomonadaceae” value (jejunal microbiota; 1 g berberine/kg feed, 21 days) was 0.35%, the “Mean relative abundance of Ruminococcaceae” value (jejunal microbiota; 1 g berberine/kg feed, 21 days) was 10.54% and the “Mean relative abundance of uncultured bacterium family (Tenericutes, Mollicutes RF39)” value (jejunal microbiota; 1 g berberine/kg feed, 21 days) was 0.00%. The “L2FC of LinDA-normalized abundance of Bacillaceae” value (jejunal microbiota; 1 vs 0 g berberine/kg feed) was 0.80, the “L2FC of LinDA-normalized abundance of Burkholderiaceae” value (jejunal microbiota; 1 vs 0 g berberine/kg feed) was 1.37 and the “L2FC of LinDA-normalized abundance of Peptostreptococcaceae” value (jejunal microbiota; 1 vs 0 g berberine/kg feed) was -3.21. The “L2FC of LinDA-normalized abundance of Pseudomonadaceae” value (jejunal microbiota; 1 vs 0 g berberine/kg feed) was 1.01, the “L2FC of LinDA-normalized abundance of Ruminococcaceae” value (jejunal microbiota; 1 vs 0 g berberine/kg feed) was 1.51 and the “L2FC of LinDA-normalized abundance of uncultured bacterium family (Tenericutes, Mollicutes RF39)” value (jejunal microbiota; 1 vs 0 g berberine/kg feed) was 0.00. The “Abundance of phylum Actinobacteria” value (jejunal microbiota; high dose (1 g/kg feed), p = 0.021) was “reduction” and the “Abundance of phylum Actinobacteria” value (jejunal microbiota; low dose (0.1 g/kg feed), p < 0.001) was “reduction”.
